Reference: ChEMBL document CHEMBL1135818, “A new, potent urotensin II receptor peptide agonist containing a Pen residue at the disulfide bridge” (J Med Chem, 2002)
Bridge positions count the residues as written; N and C are the ends. Square brackets hold non-standard residues; d marks the D form. Peptide text beside a SMILES is read from it. dPen = CC(C)(S)[C@@H](N)C(=O)O; Pen = CC(C)(S)[C@H](N)C(=O)O

How the values were obtained:
[1] = target: T1, Urotensin-2 receptor (Homo sapiens) (UniProt Q9UKP6); conditions: CHO-K1
T1 sequence (whole entry): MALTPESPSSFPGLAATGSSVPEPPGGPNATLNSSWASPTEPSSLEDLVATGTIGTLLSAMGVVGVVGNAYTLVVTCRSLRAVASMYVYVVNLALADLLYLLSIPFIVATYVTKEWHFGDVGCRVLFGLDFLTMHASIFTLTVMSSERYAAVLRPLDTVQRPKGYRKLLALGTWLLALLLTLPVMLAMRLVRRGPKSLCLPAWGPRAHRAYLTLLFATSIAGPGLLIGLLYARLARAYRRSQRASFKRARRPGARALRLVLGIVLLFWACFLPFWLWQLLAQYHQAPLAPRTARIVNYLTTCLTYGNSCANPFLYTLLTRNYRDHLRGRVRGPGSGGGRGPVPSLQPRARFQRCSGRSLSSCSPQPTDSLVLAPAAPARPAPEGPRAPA

Urotensin-2 receptor = target: T2, Urotensin-2 receptor (Homo sapiens, UniProt Q9UKP6); assay: Ability to displace radioligand [125I]Tyr-hU-II from human recombinant Urotensin 2 receptor in CHO-K1 cells; type: cell-based
T2 sequence (Q9UKP6 whole entry): T1 sequence (whole entry)

Row | Compound | pD2 [1] | Log Ki (Urotensin-2 receptor)
1 | CC(C)[C@H](NC(=O)[C@@H]1CSSC[C@@H](NC(=O)[C@@H](N)CC(=O)O)C(=O)N[C@@H](Cc2ccccc2)C(=O)N[C@@H](Cc2c[nH]c3ccccc23)C(=O)N[C@@H](CCCCN)C(=O)N[C@@H](Cc2ccc(O)cc2)C(=O)N1)C(=O)O (H-D[dC]FWKYCV-OH; disulfide 2-7) | 8.6 | –
2 | CC(C)[C@H](NC(=O)[C@H]1NC(=O)[C@H](Cc2ccc(O)cc2)NC(=O)[C@H](CCCCN)NC(=O)[C@H](Cc2c[nH]c3ccccc23)NC(=O)[C@H](Cc2ccccc2)NC(=O)[C@@H](NC(=O)[C@@H](N)CC(=O)O)CSSC1(C)C)C(=O)O | – | -7.9
3 | CC(C)[C@H](NC(=O)[C@H]1NC(=O)[C@H](Cc2ccc(O)cc2)NC(=O)[C@H](CCCCN)NC(=O)[C@H](Cc2c[nH]c3ccccc23)NC(=O)[C@H](Cc2ccccc2)NC(=O)[C@@H](NC(=O)[C@@H](N)CC(=O)O)C(C)(C)SSC1(C)C)C(=O)O (H-D[Pen]FWKY[Pen]V-OH; disulfide 2-7) | – | -8.9
4 | CC(C)[C@H](NC(=O)[C@@H]1NC(=O)[C@H](Cc2ccc(O)cc2)NC(=O)[C@H](CCCCN)NC(=O)[C@H](Cc2c[nH]c3ccccc23)NC(=O)[C@H](Cc2ccccc2)NC(=O)[C@H](NC(=O)[C@@H](N)CC(=O)O)CSSC1(C)C)C(=O)O | 6.7 | –
5 | CC(C)[C@H](NC(=O)[C@@H]1CSSC[C@@H](NC(=O)[C@H](CC(=O)O)NC(=O)[C@H]2CCCN2C(=O)[C@@H](NC(=O)[C@@H](N)CCC(=O)O)[C@@H](C)O)C(=O)N[C@H](Cc2ccccc2)C(=O)N[C@@H](Cc2c[nH]c3ccccc23)C(=O)N[C@H](CCCCN)C(=O)N[C@@H](Cc2ccc(O)cc2)C(=O)N1)C(=O)O | 8.3 | –
6 | CC(C)[C@H](NC(=O)[C@@H]1NC(=O)[C@H](Cc2ccc(O)cc2)NC(=O)[C@H](CCCCN)NC(=O)[C@H](Cc2c[nH]c3ccccc23)NC(=O)[C@H](Cc2ccccc2)NC(=O)[C@H](NC(=O)[C@@H](N)CC(=O)O)C(C)(C)SSC1(C)C)C(=O)O (H-D[dPen]FWKY[dPen]V-OH; disulfide 2-7) | 8.2 | –
7 | CC(C)[C@H](NC(=O)[C@@H]1CSSC(C)(C)[C@@H](NC(=O)[C@@H](N)CC(=O)O)C(=O)N[C@@H](Cc2ccccc2)C(=O)N[C@@H](Cc2c[nH]c3ccccc23)C(=O)N[C@@H](CCCCN)C(=O)N[C@@H](Cc2ccc(O)cc2)C(=O)N1)C(=O)O (H-D[dPen]FWKYCV-OH; disulfide 2-7) | 9.6 | –
